ChEMBL document CHEMBL3991601, “The target landscape of clinical kinase drugs” (Science, 2017)
Where a name gives a salt, the structure may show the parent alone. The source made the active and inactive calls. Rule as the data show it, for most assays here: actives have a measured Kd and inactives only a lower limit.

What was measured:
[1] = biological target: T1, Breakpoint cluster region protein (Homo sapiens, UniProt P11274)
T1 sequence (P11274 whole entry): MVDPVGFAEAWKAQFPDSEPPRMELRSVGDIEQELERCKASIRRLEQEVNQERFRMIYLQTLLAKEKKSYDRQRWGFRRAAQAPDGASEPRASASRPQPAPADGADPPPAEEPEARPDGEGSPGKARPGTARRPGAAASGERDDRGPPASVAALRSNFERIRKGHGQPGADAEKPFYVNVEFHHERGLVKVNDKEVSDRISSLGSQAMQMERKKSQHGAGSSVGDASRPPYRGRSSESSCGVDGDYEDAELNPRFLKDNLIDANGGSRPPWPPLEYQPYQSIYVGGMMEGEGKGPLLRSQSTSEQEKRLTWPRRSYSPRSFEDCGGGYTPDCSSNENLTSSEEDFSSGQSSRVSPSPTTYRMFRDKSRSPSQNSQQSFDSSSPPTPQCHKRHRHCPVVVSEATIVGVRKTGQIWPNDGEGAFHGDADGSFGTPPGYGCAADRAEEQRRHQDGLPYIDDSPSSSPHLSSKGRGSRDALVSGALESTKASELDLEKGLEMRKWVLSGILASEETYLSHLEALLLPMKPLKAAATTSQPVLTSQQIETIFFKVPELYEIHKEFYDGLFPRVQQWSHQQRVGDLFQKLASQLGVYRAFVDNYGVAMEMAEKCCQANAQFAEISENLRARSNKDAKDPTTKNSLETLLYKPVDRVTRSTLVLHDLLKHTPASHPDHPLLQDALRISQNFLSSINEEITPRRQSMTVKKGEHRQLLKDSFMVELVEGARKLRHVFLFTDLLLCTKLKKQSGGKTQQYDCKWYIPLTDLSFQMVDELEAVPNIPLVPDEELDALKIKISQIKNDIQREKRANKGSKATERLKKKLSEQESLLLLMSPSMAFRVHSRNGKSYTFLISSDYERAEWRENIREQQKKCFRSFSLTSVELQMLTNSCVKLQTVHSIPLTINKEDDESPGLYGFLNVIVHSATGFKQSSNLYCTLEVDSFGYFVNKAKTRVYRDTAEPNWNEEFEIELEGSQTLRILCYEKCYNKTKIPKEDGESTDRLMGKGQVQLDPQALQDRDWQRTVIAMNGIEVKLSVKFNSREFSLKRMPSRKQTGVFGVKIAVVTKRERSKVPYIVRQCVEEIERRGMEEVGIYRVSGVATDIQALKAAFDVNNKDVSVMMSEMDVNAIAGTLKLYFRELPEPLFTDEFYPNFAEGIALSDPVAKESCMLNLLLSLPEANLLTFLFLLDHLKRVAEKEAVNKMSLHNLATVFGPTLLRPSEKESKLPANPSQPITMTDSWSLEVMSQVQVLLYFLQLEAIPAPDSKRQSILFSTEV

[2] = biological target: Tyrosine-protein kinase Lyn (Homo sapiens, UniProt P07948)
[3] = biological target: Ras-related protein Rab-6A (Homo sapiens, UniProt P20340)
[4] = biological target: Ribosomal protein S6 kinase alpha-3 (Homo sapiens, UniProt P51812)
[5] = biological target: STE20-like serine/threonine-protein kinase (Homo sapiens, UniProt Q9H2G2)
[6] = biological target: Serine/threonine-protein kinase 16 (Homo sapiens, UniProt O75716)
[7] = biological target: T2, Serine/threonine-protein kinase ICK (Homo sapiens, UniProt Q9UPZ9)
T2 sequence (Q9UPZ9 whole entry): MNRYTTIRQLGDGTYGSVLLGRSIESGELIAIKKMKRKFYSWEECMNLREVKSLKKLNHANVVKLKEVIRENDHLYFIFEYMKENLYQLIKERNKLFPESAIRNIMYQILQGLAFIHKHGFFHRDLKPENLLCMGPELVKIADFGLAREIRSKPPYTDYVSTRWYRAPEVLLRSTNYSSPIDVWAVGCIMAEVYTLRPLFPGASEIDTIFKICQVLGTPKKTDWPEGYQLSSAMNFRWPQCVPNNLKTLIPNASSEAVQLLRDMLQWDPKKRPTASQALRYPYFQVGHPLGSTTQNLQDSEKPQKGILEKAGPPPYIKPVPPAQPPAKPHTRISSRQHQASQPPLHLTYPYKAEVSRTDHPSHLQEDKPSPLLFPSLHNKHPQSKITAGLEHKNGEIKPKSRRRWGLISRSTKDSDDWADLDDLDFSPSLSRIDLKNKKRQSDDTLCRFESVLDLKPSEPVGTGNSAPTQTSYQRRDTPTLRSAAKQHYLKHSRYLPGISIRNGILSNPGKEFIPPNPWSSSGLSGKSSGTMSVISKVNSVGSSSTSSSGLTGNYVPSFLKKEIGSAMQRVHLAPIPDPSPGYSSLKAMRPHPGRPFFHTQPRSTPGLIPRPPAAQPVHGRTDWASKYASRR
Also: in the data inactive means no Kd found up to 30 µM.

Chain of STE20-like serine/threonine-protein kinase (Q9H2G2 whole entry): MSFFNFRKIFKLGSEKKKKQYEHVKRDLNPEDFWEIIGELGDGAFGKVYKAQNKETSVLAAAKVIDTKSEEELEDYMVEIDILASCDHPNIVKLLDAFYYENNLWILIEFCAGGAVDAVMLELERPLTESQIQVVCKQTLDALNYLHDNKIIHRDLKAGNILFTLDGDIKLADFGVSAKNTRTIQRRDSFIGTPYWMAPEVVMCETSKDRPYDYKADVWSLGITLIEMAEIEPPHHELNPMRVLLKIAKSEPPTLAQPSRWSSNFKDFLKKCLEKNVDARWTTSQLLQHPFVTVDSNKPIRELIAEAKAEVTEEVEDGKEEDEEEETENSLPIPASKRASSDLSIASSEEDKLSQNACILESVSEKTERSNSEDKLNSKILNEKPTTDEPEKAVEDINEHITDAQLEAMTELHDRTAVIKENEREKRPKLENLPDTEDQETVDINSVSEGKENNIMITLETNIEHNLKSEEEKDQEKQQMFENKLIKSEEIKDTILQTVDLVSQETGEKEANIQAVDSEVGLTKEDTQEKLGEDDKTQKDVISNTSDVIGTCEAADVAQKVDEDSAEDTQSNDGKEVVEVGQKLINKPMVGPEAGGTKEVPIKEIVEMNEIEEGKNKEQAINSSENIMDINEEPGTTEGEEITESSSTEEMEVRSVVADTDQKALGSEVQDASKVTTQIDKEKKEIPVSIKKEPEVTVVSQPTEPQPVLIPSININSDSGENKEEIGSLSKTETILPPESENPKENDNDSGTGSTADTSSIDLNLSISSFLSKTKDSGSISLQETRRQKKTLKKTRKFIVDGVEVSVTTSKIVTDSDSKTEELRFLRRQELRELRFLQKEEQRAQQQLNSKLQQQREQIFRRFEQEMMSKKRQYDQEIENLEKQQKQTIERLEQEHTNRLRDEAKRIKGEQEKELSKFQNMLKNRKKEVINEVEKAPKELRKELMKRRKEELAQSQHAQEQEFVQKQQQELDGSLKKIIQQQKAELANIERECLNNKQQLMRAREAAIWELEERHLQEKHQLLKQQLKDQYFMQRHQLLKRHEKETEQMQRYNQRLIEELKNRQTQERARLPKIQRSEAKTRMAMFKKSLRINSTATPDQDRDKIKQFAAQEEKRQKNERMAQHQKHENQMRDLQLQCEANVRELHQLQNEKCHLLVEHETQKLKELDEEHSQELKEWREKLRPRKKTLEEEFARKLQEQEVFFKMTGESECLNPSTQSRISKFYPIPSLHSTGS
Chain of Tyrosine-protein kinase Lyn (P07948 whole entry): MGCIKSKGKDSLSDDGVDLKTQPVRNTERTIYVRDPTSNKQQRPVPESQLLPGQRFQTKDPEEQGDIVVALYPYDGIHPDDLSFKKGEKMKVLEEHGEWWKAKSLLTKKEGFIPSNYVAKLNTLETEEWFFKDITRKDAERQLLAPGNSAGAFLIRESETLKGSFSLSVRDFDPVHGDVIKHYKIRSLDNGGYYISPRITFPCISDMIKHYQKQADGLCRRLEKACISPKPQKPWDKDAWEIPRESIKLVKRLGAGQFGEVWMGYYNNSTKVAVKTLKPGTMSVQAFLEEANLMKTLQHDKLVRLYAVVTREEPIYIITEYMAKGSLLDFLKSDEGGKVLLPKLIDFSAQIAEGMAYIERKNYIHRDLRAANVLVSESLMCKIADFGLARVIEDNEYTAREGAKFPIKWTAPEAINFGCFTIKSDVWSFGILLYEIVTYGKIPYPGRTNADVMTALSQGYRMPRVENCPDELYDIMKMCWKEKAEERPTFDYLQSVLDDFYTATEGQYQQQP
Chain of Ribosomal protein S6 kinase alpha-3 (P51812 whole entry): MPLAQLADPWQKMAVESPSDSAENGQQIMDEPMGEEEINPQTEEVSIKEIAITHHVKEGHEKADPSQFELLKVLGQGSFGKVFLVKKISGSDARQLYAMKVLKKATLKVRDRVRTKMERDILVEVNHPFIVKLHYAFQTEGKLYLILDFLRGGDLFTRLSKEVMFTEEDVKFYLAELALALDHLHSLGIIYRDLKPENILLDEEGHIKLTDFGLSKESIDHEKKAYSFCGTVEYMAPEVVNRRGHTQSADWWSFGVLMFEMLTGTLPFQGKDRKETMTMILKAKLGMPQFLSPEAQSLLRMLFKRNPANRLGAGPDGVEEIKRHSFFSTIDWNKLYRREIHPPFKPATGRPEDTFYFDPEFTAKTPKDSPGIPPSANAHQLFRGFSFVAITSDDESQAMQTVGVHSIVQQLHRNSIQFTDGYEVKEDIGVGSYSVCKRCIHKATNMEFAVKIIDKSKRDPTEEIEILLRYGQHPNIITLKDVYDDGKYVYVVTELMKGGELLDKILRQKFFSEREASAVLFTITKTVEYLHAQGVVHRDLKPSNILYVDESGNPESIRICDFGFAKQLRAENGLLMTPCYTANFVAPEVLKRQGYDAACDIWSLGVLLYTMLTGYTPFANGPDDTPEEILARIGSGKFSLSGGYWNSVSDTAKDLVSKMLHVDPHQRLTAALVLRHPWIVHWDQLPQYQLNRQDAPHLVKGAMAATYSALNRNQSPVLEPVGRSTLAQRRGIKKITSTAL
Chain of Serine/threonine-protein kinase 16 (O75716 whole entry): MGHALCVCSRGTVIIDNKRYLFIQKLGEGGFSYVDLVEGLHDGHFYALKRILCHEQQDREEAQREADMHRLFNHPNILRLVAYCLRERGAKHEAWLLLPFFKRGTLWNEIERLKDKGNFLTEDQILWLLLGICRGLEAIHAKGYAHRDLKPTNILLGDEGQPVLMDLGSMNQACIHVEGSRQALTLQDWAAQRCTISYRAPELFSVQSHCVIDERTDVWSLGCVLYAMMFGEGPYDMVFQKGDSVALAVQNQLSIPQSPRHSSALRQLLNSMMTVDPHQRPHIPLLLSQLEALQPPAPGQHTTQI
Chain of Ras-related protein Rab-6A (P20340 whole entry): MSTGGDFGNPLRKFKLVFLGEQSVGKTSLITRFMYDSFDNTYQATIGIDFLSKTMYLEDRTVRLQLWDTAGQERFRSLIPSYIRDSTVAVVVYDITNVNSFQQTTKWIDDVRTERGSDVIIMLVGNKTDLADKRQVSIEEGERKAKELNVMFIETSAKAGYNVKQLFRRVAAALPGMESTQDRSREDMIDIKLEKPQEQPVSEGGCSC

Kd [1]	Kd [2]	Kd [3]	Kd [4]	Kd [5]	Kd [6]	Kd [7]	SMILES
> 30 µM (inactive)	> 30 µM (inactive)	> 30 µM (inactive)	> 30 µM (inactive)	> 30 µM (inactive)	> 30 µM (inactive)	–	C[C@@H](Oc1cc(C(=O)Nc2ccc(C(=O)N3CCN(C)CC3)cc2)nnc1N)c1c(Cl)ccc(F)c1Cl
> 30 µM (inactive)	> 30 µM (inactive)	> 30 µM (inactive)	> 30 µM (inactive)	> 30 µM (inactive)	> 30 µM (inactive)	> 30 µM (inactive)	C[C@H]1CNCCCN1S(=O)(=O)c1cccc2cncc(F)c12
> 30 µM (inactive)	> 30 µM (inactive)	> 30 µM (inactive)	> 30 µM (inactive)	13.4 µM (active)	> 30 µM (inactive)	> 30 µM (inactive)	C=CC(=O)Nc1cc2c(Nc3ccc(F)c(Cl)c3)ncnc2cc1C#CC(C)(C)N1CCN(C)CC1 [AV-412 FREE BASE]
> 30 µM (inactive)	> 30 µM (inactive)	> 30 µM (inactive)	> 30 µM (inactive)	> 30 µM (inactive)	> 30 µM (inactive)	> 30 µM (inactive)	COc1ccc(S(=O)(=O)N(C(C)=O)c2ccccc2/C=C/c2cc[n+]([O-])cc2)cc1 [HMN-214]
> 30 µM (inactive)	> 30 µM (inactive)	> 30 µM (inactive)	> 30 µM (inactive)	> 30 µM (inactive)	> 30 µM (inactive)	–	Cn1ncc(Cl)c1-c1cc(C(=O)N[C@H](CN)Cc2ccc(F)c(F)c2)oc1Cl [UPROSERTIB]

The remaining lines, values behind:

SMILES	Kd [1]	Kd [2]	Kd [3]	Kd [4]	Kd [5]	Kd [6]	Kd [7]
Cc1csc(-c2nnc(Nc3ccc(Oc4ncccc4-c4ccnc(N)n4)cc3)c3ccccc23)c1 [AMG-900]	1.97 µM (active)	> 30 µM (inactive)	> 30 µM (inactive)	> 30 µM (inactive)	> 30 µM (inactive)	> 30 µM (inactive)	> 30 µM (inactive)
NC(=O)Nc1cc(-c2cccc(F)c2)sc1C(=O)N[C@H]1CCCNC1 [AZD-7762]	–	0.48 µM (active)	> 30 µM (inactive)	> 30 µM (inactive)	1.09 µM (active)	> 30 µM (inactive)	> 30 µM (inactive)
CCS(=O)(=O)N1CCN(c2ccc(Nc3ncc(C(N)=O)c(NC4CC4)n3)cc2)CC1 [Cerdulatinib Hydrochloride]	> 30 µM (inactive)	> 30 µM (inactive)	> 30 µM (inactive)	5.89 µM (active)	> 30 µM (inactive)	> 30 µM (inactive)	> 30 µM (inactive)
Cc1nc2cc(-n3ncc(C(=O)c4cc5ccccc5[nH]4)c3N)ccc2[nH]1 [FGFR INHIBITOR DEBIO 1347]	> 30 µM (inactive)	> 30 µM (inactive)	> 30 µM (inactive)	> 30 µM (inactive)	> 30 µM (inactive)	> 30 µM (inactive)	–
O=C(Nc1nc2cccc(-c3ccc(CN4CCS(=O)(=O)CC4)cc3)n2n1)C1CC1 [FILGOTINIB]	> 30 µM (inactive)	> 30 µM (inactive)	> 30 µM (inactive)	> 30 µM (inactive)	9.27 µM (active)	> 30 µM (inactive)	> 30 µM (inactive)
NC(=O)c1c(OCc2c(F)cc(Br)cc2F)nsc1NC(=O)NCCCCN1CCCC1 [OSI-632]	2.6 µM (active)	–	> 30 µM (inactive)	–	–	> 30 µM (inactive)	> 30 µM (inactive)
CNC(=O)c1cc(Oc2ccc(NC(=O)Nc3cc(C(C)(C)C)nn3-c3ccc4ncccc4c3)c(F)c2)ccn1 [REBASTINIB]	0.381 µM (active)	–	> 30 µM (inactive)	> 30 µM (inactive)	> 30 µM (inactive)	–	> 30 µM (inactive)
CN1CCN(CCOc2cc(OC3CCOCC3)c3c(Nc4c(Cl)ccc5c4OCO5)ncnc3c2)CC1 [SARACATINIB]	0.016 µM (active)	0.113 µM (active)	> 30 µM (inactive)	> 30 µM (inactive)	–	> 30 µM (inactive)	> 30 µM (inactive)
